The test system of one test is L1210. As to the kind of experiment: Growth inhibition of mouse L1210 cells after 72 hrs by phosphatase assay. It is filed as functional, cell-based. The following applies: L1210, 72 h.
In the next test the test system is HCT-116. As to the kind of experiment: Growth inhibition of human HCT116 cells after 72 hrs by phosphatase assay. The following applies: HCT-116, 72 h. The class given is functional, cell-based.
The next test concerns HCT-116/VM46. In words: Growth inhibition of human HCT116/VM46 cells over-expressing P-gp after 72 hrs by phosphatase assay. The class given is functional, cell-based. The conditions noted are these: HCT-116/VM46, 72 h.
A further test has as its system A549. As to the kind of experiment: Growth inhibition of human A549 cells. It is filed as functional, cell-based.
A short description of test [1]: Growth inhibition of human A549-T24 cells over-expressing class-3 beta-tubulin. The class given is functional.
The nature of test [2]: Selectivity ratio of IC50 for human HCT116/VM46 cells over-expressing P-gp to IC50 for human HCT116 cells. The class given is functional.
Test [3] in a line: Selectivity ratio of IC50 for human A549-T24 cells over-expressing class-3 beta-tubulin to IC50 for human A549 cells. The class given is functional.

The text below walks through data of ChEMBL document CHEMBL4184283, “High expression of class III β-tubulin has no impact on functional cancer cell growth inhibition of a series of key vinblastine analogs” (Bioorg Med Chem Lett, 2018).

In the case of `CC[C@]1(NC(=O)c2ccc3c(c2)CCCO3)C[C@H]2CN(CCc3c([nH]c4ccc(F)cc34)[C@@](C(=O)OC)(c3cc4c(cc3OC)N(C)[C@H]3[C@@](O)(C(=O)OC)[C@H](OC(C)=O)[C@]5(CC)C=CCN6CC[C@]43[C@@H]65)C2)C1`, the concentration for half-maximal inhibition (IC50) (commonly the point on the concentration scale where inhibition reaches its midpoint) with L1210 stood at 0.4 nM; in the test on HCT-116, 0.5 nM; in the test on HCT-116/VM46 it was 1.8 nM; with A549, 1.4 nM; in test [1], 0.8 nM. In addition, the “Ratio IC50” value in test [2] was 3.8; in test [3], less than 1.

With `CC[C@]1(O)C[C@@H]2CN(CCc3c([nH]c4ccccc34)[C@@](C(=O)OC)(c3cc4c(cc3OC)N(C)[C@H]3[C@@](O)(C(=O)OC)[C@H](OC(C)=O)[C@]5(CC)C=CCN6CC[C@]43[C@@H]65)C2)C1` [VINBLASTINE], the concentration for half-maximal inhibition (IC50) with A549 was found to be 7.7 nM; in test [1], 6.7 nM. Further, the “Ratio IC50” value in test [3] is listed as less than 1.

`CC(=O)O[C@H]1C(=O)[C@@]2(C)[C@H]([C@H](OC(=O)c3ccccc3)[C@]3(O)C[C@H](OC(=O)[C@H](O)[C@@H](NC(=O)c4ccccc4)c4ccccc4)C(C)=C1C3(C)C)[C@]1(OC(C)=O)CO[C@@H]1C[C@@H]2O` [PACLITAXEL]: the concentration for half-maximal inhibition (IC50) was more than 200 nM in the test on HCT-116/VM46, 7.1 nM in the test on A549 and 70 nM in test [1]. Further, the “Ratio IC50” value in test [2] is on record as more than 50; in test [3], 10.

With `CC[C@]1(NC(=O)N2Cc3ccc(NC(=O)c4cccnn4)cc3C2)C[C@H]2CN(CCc3c([nH]c4ccc(F)cc34)[C@@](C(=O)OC)(c3cc4c(cc3OC)N(C)[C@H]3[C@@](O)(C(=O)OC)[C@H](OC(C)=O)[C@]5(CC)C=CCN6CC[C@]43[C@@H]65)C2)C1`, the IC50 in the test on L1210 worked out at 0.06 nM; with HCT-116 it was 0.07 nM; in the test with HCT-116/VM46 it was 0.87 nM; in the test with A549, 0.53 nM; in test [1] it was 0.26 nM. In addition, the “Ratio IC50” value is 12 in test [2] and less than 1 in test [3].

Turning to `CC[C@]1(NC(=O)N2Cc3ccc(NC(=O)c4cnccn4)cc3C2)C[C@H]2CN(CCc3c([nH]c4ccc(F)cc34)[C@@](C(=O)OC)(c3cc4c(cc3OC)N(C)[C@H]3[C@@](O)(C(=O)OC)[C@H](OC(C)=O)[C@]5(CC)C=CCN6CC[C@]43[C@@H]65)C2)C1`, the concentration for half-maximal inhibition (IC50) with L1210 turned out to be 0.06 nM; in the test on HCT-116, 0.07 nM; in the test with HCT-116/VM46, 0.83 nM; in the test with A549, 0.19 nM; in test [1], 0.09 nM. Moreover, the “Ratio IC50” value is listed as 12 in test [2] and less than 1 in test [3].

Consider `CC[C@]1(NC(=O)N2Cc3ccc(NC(=O)c4ccncn4)cc3C2)C[C@H]2CN(CCc3c([nH]c4ccc(F)cc34)[C@@](C(=O)OC)(c3cc4c(cc3OC)N(C)[C@H]3[C@@](O)(C(=O)OC)[C@H](OC(C)=O)[C@]5(CC)C=CCN6CC[C@]43[C@@H]65)C2)C1`, for which the IC50 in the test on L1210 amounted to 0.06 nM; with HCT-116, 0.07 nM; in the test with HCT-116/VM46 it was 0.88 nM; in the test with A549 it was 0.17 nM; in test [1] it was 0.13 nM. Besides, the “Ratio IC50” value is 13 in test [2] and less than 1 in test [3].

For `CC[C@]1(NC(=O)c2ccc(C)c(C)c2)C[C@H]2CN(CCc3c([nH]c4ccc(F)cc34)[C@@](C(=O)OC)(c3cc4c(cc3OC)N(C)[C@H]3[C@@](O)(C(=O)OC)[C@H](OC(C)=O)[C@]5(CC)C=CCN6CC[C@]43[C@@H]65)C2)C1`, the IC50 in the test on L1210 came to 3 nM; with HCT-116, 4.5 nM; in the test on HCT-116/VM46, 7.6 nM; in the test on A549, 5 nM; in test [1] it was 2.5 nM. For the same compound, the figures for the “Ratio IC50” value in test [2] and in test [3] were 1.7 and less than 1, respectively.

Consider `CC[C@]1(O)C[C@H]2CN(CCc3c([nH]c4ccc(F)cc34)[C@@](C(=O)OC)(c3cc4c(cc3OC)N(C)[C@H]3[C@@](O)(C(=O)OC)[C@H](OC(C)=O)[C@]5(CC)C=CCN6CC[C@]43[C@@H]65)C2)C1`, for which the figures for the IC50 (in the test on A549; in test [1]) were 2.9 nM and 0.8 nM, respectively. In addition, the “Ratio IC50” value in test [2] is on record as 100; in test [3], less than 1.

Turning to `CC[C@]1(NC(=O)N2Cc3ccccc3C2)C[C@H]2CN(CCc3c([nH]c4ccc(F)cc34)[C@@](C(=O)OC)(c3cc4c(cc3OC)N(C)[C@H]3[C@@](O)(C(=O)OC)[C@H](OC(C)=O)[C@]5(CC)C=CCN6CC[C@]43[C@@H]65)C2)C1`, the half-maximal inhibitory concentration (IC50) in the test with L1210 stood at 0.5 nM; in the test on HCT-116 it was 0.6 nM; in the test on HCT-116/VM46, 7.5 nM; in the test with A549, 0.7 nM; in test [1], 0.7 nM. Besides, the “Ratio IC50” value in test [2] is listed as 12; in test [3], 1.

As to `CC[C@]1(NC(=O)c2ccc3c(c2)CCCC3)C[C@H]2CN(CCc3c([nH]c4ccc(F)cc34)[C@@](C(=O)OC)(c3cc4c(cc3OC)N(C)[C@H]3[C@@](O)(C(=O)OC)[C@H](OC(C)=O)[C@]5(CC)C=CCN6CC[C@]43[C@@H]65)C2)C1`, the IC50 is 3 nM in the test with L1210; 4.9 nM in the test on HCT-116; 8.7 nM in the test on HCT-116/VM46; 7.6 nM in the test on A549; 6.5 nM in test [1]. Moreover, the “Ratio IC50” value in test [2] is on record as 1.8; in test [3], less than 1.
